Test results from article PMC8507746, “The FHP01 DDX3X Helicase Inhibitor Exerts Potent Anti-Tumor Activity In Vivo in Breast Cancer Pre-Clinical Models” (Cancers, 2021).

Target: T1, HA-DDX3X immunoprecipitated from 293T cells (Homo sapiens, UniProt O00571)
T1 construct: host or cells: 293T cells, transient transfection, anti-HA immunoprecipitation; protein used on beads
Assay: Qualitative in vitro helicase assay with immunoprecipitated HA-DDX3X (dsRNA unwinding)
Assay type: biochemical
Conditions: human protein immunoprecipitated from 293T cells
Method: 293T cells (3 × 10^5) were seeded in 6-well plates and, after 24 h, transfected with 1 μg of HA-DDX3 (Addgene plasmid # 44975) by using the Lipofectamine reagent (Thermo Fischer Scientific, Waltham, MA, USA). After 36 h, cells were lysed in NP-40 Lysis Buffer (20 mM HEPES pH = 7.5, 10 mM EGTA pH = 8, 40 mM β-glycerolphosphate, 1% NP40, 2.5 mM MgCl2, 2 mM Orthovanadate, 2 mM NaF, 1 mM DTT, and 1X protease inhibitors mixture) and 2 mg of proteins were immunoprecipitated with anti-HA antibodies (Covance, Princeton, NJ, USA) in NP40 lysis buffer. Immunoprecipitated samples were washed twice with lysis buffer and one time in helicase reaction buffer (50 mM Tris HCl pH = 8, 1 mM DTT, 5% glycerol, 10 mM MgCl2). Beads were then resuspended in 100 μL in helicase reaction buffer. […]
Ultimately, reactions were performed in a final volume 100 μL of helicase reaction buffer plus ATP 4 mM, 30 μL of beads used to immunoprecipitate HA-DDX3X, 20 nM of 18/36mer dsRNA, and 100 nM of competitor at 37 °C for 1 h and stopped by adding 10 μL of a stopping solution (EDTA 60 mM pH = 8, 40% glycerol, 0,6% SDS, 1% Orange G). […] Quantification of the ssRNA was performed by the ImageJ software (National Institutes of Health, Bethesda, MD, USA).

T1 sequence (O00571 whole entry): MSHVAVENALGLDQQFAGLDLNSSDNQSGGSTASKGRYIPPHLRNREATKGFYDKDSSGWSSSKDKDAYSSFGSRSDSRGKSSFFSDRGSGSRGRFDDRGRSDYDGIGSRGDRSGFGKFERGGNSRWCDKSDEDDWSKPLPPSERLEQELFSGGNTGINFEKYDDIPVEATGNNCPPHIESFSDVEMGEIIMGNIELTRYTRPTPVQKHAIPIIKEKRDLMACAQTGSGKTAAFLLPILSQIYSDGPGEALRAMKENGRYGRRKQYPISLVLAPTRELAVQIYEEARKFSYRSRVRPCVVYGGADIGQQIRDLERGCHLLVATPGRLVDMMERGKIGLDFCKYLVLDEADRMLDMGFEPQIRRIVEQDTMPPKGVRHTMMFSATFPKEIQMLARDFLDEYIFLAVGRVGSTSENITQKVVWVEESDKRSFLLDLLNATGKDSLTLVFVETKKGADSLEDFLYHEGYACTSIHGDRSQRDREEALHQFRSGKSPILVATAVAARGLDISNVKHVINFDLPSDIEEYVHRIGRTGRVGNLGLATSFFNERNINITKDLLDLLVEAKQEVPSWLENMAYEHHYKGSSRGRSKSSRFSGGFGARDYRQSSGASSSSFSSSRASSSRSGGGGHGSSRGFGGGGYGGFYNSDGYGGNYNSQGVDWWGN

Structure (SMILES): CCCCc1cn(-c2ccc(NC(=O)Nc3ccccc3C(F)(F)F)cc2)nn1 [FHP01]
- inhibition of DDX3X helicase activity, qualitative: activity comparable to RK33
